In ChEMBL document CHEMBL3112480, “γ-Alkylidene-γ-lactones and isobutylpyrrol-2(5H)-ones analogues to rubrolides as inhibitors of biofilm formation by gram-positive and gram-negative bacteria” (Bioorg Med Chem Lett, 2014):
In brackets after ≈: the same amount, converted by molar mass.

Legend:
[1] = system: Streptococcus mutans; experiment: Antibacterial activity against Streptococcus mutans ATCC 25175 assessed as effect on planktonic growth at 21.9 ug/ml after 20 hrs relative to control; format: functional
[2] = system: Streptococcus mutans; experiment: Antibacterial activity against Streptococcus mutans ATCC 25175 assessed as effect on planktonic growth at 43.8 ug/ml after 20 hrs relative to control; format: functional
[3] = system: Streptococcus mutans; experiment: Antibacterial activity against Streptococcus mutans ATCC 25175 assessed as effect on planktonic growth at 87.5 ug/ml after 20 hrs relative to control; format: functional
[4] = system: Staphylococcus aureus; experiment: Antibacterial activity against Staphylococcus aureus ATCC 25923 assessed as effect on planktonic growth at 0.17 ug/ml after 20 hrs relative to control; format: functional
[5] = system: Staphylococcus aureus; experiment: Antibacterial activity against Staphylococcus aureus ATCC 25923 assessed as effect on planktonic growth at 0.34 ug/ml after 20 hrs relative to control; format: functional
[6] = system: Staphylococcus aureus; experiment: Antibacterial activity against Staphylococcus aureus ATCC 25923 assessed as effect on planktonic growth at 0.68 ug/ml after 20 hrs relative to control; format: functional
[7] = system: Staphylococcus aureus; experiment: Antibacterial activity against Staphylococcus aureus ATCC 25923 assessed as effect on planktonic growth at 1.37 ug/ml after 20 hrs relative to control; format: functional
[8] = system: Staphylococcus aureus; experiment: Antibacterial activity against Staphylococcus aureus ATCC 25923 assessed as effect on planktonic growth at 5.5 ug/ml after 20 hrs relative to control; format: functional
[9] = system: Staphylococcus aureus; experiment: Antibacterial activity against Staphylococcus aureus ATCC 25923 assessed as effect on planktonic growth at 2.73 ug/ml after 20 hrs relative to control; format: functional
[10] = system: Staphylococcus aureus; experiment: Antibacterial activity against Staphylococcus aureus ATCC 25923 assessed as effect on planktonic growth at 10.9 ug/ml after 20 hrs relative to control; format: functional
[11] = system: Staphylococcus aureus; experiment: Antibacterial activity against Staphylococcus aureus ATCC 25923 assessed as effect on planktonic growth at 21.9 ug/ml after 20 hrs relative to control; format: functional
[12] = system: Staphylococcus aureus; experiment: Antibacterial activity against Staphylococcus aureus ATCC 25923 assessed as effect on planktonic growth at 43.8 ug/ml after 20 hrs relative to control; format: functional
[13] = system: Staphylococcus aureus; experiment: Antibacterial activity against Staphylococcus aureus ATCC 25923 assessed as effect on planktonic growth at 87.5 ug/ml after 20 hrs relative to control; format: functional
[14] = system: Pseudomonas aeruginosa; experiment: Antibacterial activity against Pseudomonas aeruginosa ATCC 27853 assessed as effect on planktonic growth at 0.17 ug/ml after 20 hrs relative to control; format: functional
[15] = system: Pseudomonas aeruginosa; experiment: Antibacterial activity against Pseudomonas aeruginosa ATCC 27853 assessed as effect on planktonic growth at 0.34 ug/ml after 20 hrs relative to control; format: functional
[16] = system: Pseudomonas aeruginosa; experiment: Antibacterial activity against Pseudomonas aeruginosa ATCC 27853 assessed as effect on planktonic growth at 0.68 ug/ml after 20 hrs relative to control; format: functional
[17] = system: Pseudomonas aeruginosa; experiment: Antibacterial activity against Pseudomonas aeruginosa ATCC 27853 assessed as effect on planktonic growth at 1.37 ug/ml after 20 hrs relative to control; format: functional
[18] = system: Pseudomonas aeruginosa; experiment: Antibacterial activity against Pseudomonas aeruginosa ATCC 27853 assessed as effect on planktonic growth at 2.73 ug/ml after 20 hrs relative to control; format: functional
[19] = system: Pseudomonas aeruginosa; experiment: Antibacterial activity against Pseudomonas aeruginosa ATCC 27853 assessed as effect on planktonic growth at 5.5 ug/ml after 20 hrs relative to control; format: functional
[20] = system: Pseudomonas aeruginosa; experiment: Antibacterial activity against Pseudomonas aeruginosa ATCC 27853 assessed as effect on planktonic growth at 10.9 ug/ml after 20 hrs relative to control; format: functional
[21] = system: Pseudomonas aeruginosa; experiment: Antibacterial activity against Pseudomonas aeruginosa ATCC 27853 assessed as effect on planktonic growth at 21.9 ug/ml after 20 hrs relative to control; format: functional
[22] = system: Pseudomonas aeruginosa; experiment: Antibacterial activity against Pseudomonas aeruginosa ATCC 27853 assessed as effect on planktonic growth at 43.8 ug/ml after 20 hrs relative to control; format: functional
[23] = system: Pseudomonas aeruginosa; experiment: Antibacterial activity against Pseudomonas aeruginosa ATCC 27853 assessed as effect on planktonic growth at 87.5 ug/ml after 20 hrs relative to control; format: functional
[24] = system: Staphylococcus epidermidis; experiment: Antibacterial activity against Staphylococcus epidermidis ATCC 35547 assessed as effect on planktonic growth at 0.17 ug/ml after 20 hrs relative to control; format: functional
[25] = system: Staphylococcus epidermidis; experiment: Antibacterial activity against Staphylococcus epidermidis ATCC 35547 assessed as effect on planktonic growth at 0.34 ug/ml after 20 hrs relative to control; format: functional
[26] = system: Staphylococcus epidermidis; experiment: Antibacterial activity against Staphylococcus epidermidis ATCC 35547 assessed as effect on planktonic growth at 0.68 ug/ml after 20 hrs relative to control; format: functional
[27] = system: Staphylococcus epidermidis; experiment: Antibacterial activity against Staphylococcus epidermidis ATCC 35547 assessed as effect on planktonic growth at 1.37 ug/ml after 20 hrs relative to control; format: functional
[28] = system: Staphylococcus epidermidis; experiment: Antibacterial activity against Staphylococcus epidermidis ATCC 35547 assessed as effect on planktonic growth at 2.73 ug/ml after 20 hrs relative to control; format: functional
[29] = system: Staphylococcus epidermidis; experiment: Antibacterial activity against Staphylococcus epidermidis ATCC 35547 assessed as effect on planktonic growth at 5.5 ug/ml after 20 hrs relative to control; format: functional
[30] = system: Staphylococcus epidermidis; experiment: Antibacterial activity against Staphylococcus epidermidis ATCC 35547 assessed as effect on planktonic growth at 10.9 ug/ml after 20 hrs relative to control; format: functional
[31] = system: Staphylococcus epidermidis; experiment: Antibacterial activity against Staphylococcus epidermidis ATCC 35547 assessed as effect on planktonic growth at 21.9 ug/ml after 20 hrs relative to control; format: functional
[32] = system: Staphylococcus epidermidis; experiment: Antibacterial activity against Staphylococcus epidermidis ATCC 35547 assessed as effect on planktonic growth at 43.8 ug/ml after 20 hrs relative to control; format: functional
[33] = system: Staphylococcus epidermidis; experiment: Antibacterial activity against Staphylococcus epidermidis ATCC 35547 assessed as effect on planktonic growth at 87.5 ug/ml after 20 hrs relative to control; format: functional
[34] = system: Pseudomonas aeruginosa; experiment: Induction of biofilm formation in Pseudomonas aeruginosa ATCC 27853 at 87.5 ug/ml after 20 hrs by crystal-violet staining method relative to control; format: organism-based
[35] = system: Pseudomonas aeruginosa; experiment: Antibacterial activity against Pseudomonas aeruginosa ATCC 27853 assessed as inhibition of biofilm formation after 20 hrs by crystal-violet staining method; format: functional, organism-based
[36] = system: Staphylococcus epidermidis; experiment: Antibacterial activity against Staphylococcus epidermidis ATCC 35547 assessed as inhibition of biofilm formation after 20 hrs by crystal-violet staining method; format: functional, organism-based; conditions: for IC50: ATCC 35547, 20 h
[37] = system: Streptococcus mutans; experiment: Antibacterial activity against Streptococcus mutans ATCC 25175 assessed as effect on planktonic growth at 0.17 ug/ml after 20 hrs relative to control; format: functional
[38] = system: Streptococcus mutans; experiment: Antibacterial activity against Streptococcus mutans ATCC 25175 assessed as effect on planktonic growth at 0.34 ug/ml after 20 hrs relative to control; format: functional
[39] = system: Streptococcus mutans; experiment: Antibacterial activity against Streptococcus mutans ATCC 25175 assessed as effect on planktonic growth at 0.68 ug/ml after 20 hrs relative to control; format: functional
[40] = system: Streptococcus mutans; experiment: Antibacterial activity against Streptococcus mutans ATCC 25175 assessed as effect on planktonic growth at 1.37 ug/ml after 20 hrs relative to control; format: functional
[41] = system: Streptococcus mutans; experiment: Antibacterial activity against Streptococcus mutans ATCC 25175 assessed as effect on planktonic growth at 2.73 ug/ml after 20 hrs relative to control; format: functional
[42] = system: Streptococcus mutans; experiment: Antibacterial activity against Streptococcus mutans ATCC 25175 assessed as effect on planktonic growth at 5.5 ug/ml after 20 hrs relative to control; format: functional
[43] = system: Streptococcus mutans; experiment: Antibacterial activity against Streptococcus mutans ATCC 25175 assessed as effect on planktonic growth at 10.9 ug/ml after 20 hrs relative to control; format: functional
[44] = system: Streptococcus mutans; experiment: Antibacterial activity against Streptococcus mutans ATCC 25175 assessed as inhibition of biofilm formation after 20 hrs by crystal-violet staining method; format: functional; conditions: ATCC 25175, 20 h
[45] = system: Streptococcus mutans; experiment: Antibacterial activity against Streptococcus mutans ATCC 25175 assessed as inhibition of biofilm formation at 44 ug/ml after 20 hrs by crystal-violet staining method relative to control; format: functional; conditions: ATCC 25175, 20 h
[46] = system: Staphylococcus aureus; experiment: Antibacterial activity against Staphylococcus aureus ATCC 25923 assessed as inhibition of biofilm formation after 20 hrs by crystal-violet staining method; format: functional, organism-based; conditions: ATCC 25923, 20 h

## COc1cccc(/C=C2\C(c3cc(Cl)ccc3OC)=C(Br)C(=O)N2CC(C)C)c1
[1]
  Activity: 14.8%
[2]
  Activity: 44.1%
[3]
  Activity: 76.4%
[4]
  Activity: 45.5%
[5]
  Activity: 49.8%
[6]
  Activity: 39.1%
[7]
  Activity: 36.2%
[8]
  Activity: 92.3%
[9]
  Activity: 34%
[10]
  Activity: 11.5%
[11]
  Activity: 14%
[12]
  Activity: 20.4%
[13]
  Activity: 9.8%
[14]
  Activity: 18%
[15]
  Activity: 2.9%
[16]
  Activity: 0.3%
[17]
  Activity: -6.6%
[18]
  Activity: -5.3%
[19]
  Activity: 2.8%
[20]
  Activity: 8.8%
[21]
  Activity: 19.6%
[22]
  Activity: 24.2%
[23]
  Activity: 9.6%
[24]
  Activity: 0.7%
[25]
  Activity: 0.4%
[26]
  Activity: 0.3%
[27]
  Activity: 4.2%
[28]
  Activity: 1.5%
[29]
  Activity: 4.1%
[30]
  Activity: 12.7%
[31]
  Activity: 25.4%
[32]
  Activity: 44.9%
[33]
  Activity: 45.3%
[34]
  Activity: 84.6%
[35]
  inhibition: Dose-dependent effect
[36]
  inhibition: Dose-dependent effect
  IC50: > 87.5 µg/mL
[37]
  Activity: 2.2%
[38]
  Activity: 6.1%
[39]
  Activity: -1.7%
[40]
  Activity: -3.9%
[41]
  Activity: 3.5%
[42]
  Activity: 8.3%
[43]
  Activity: 17%

## COc1ccccc1C1=C(Br)C(=O)N(CC(C)C)/C1=C/c1ccc(C(F)(F)F)cc1
[1]
  Activity: -12%
[2]
  Activity: -55.3%
[3]
  Activity: -46.9%
[4]
  Activity: 0%
[5]
  Activity: -1.6%
[6]
  Activity: -5.2%
[7]
  Activity: -14.9%
[8]
  Activity: -18.5%
[9]
  Activity: -21.7%
[10]
  Activity: -3.8%
[11]
  Activity: 4.9%
[12]
  Activity: 59.8%
[13]
  Activity: 91%
[14]
  Activity: -2.3%
[15]
  Activity: -5.2%
[16]
  Activity: -4%
[17]
  Activity: -10.4%
[18]
  Activity: -13.1%
[19]
  Activity: -15.8%
[20]
  Activity: -4.1%
[21]
  Activity: 9.1%
[22]
  Activity: 34.8%
[23]
  Activity: 30.6%
[24]
  Activity: -16.7%
[25]
  Activity: -2.2%
[26]
  Activity: -10.2%
[27]
  Activity: 1.1%
[28]
  Activity: -6.4%
[29]
  Activity: 1%
[30]
  Activity: 36.6%
[31]
  Activity: 88.5%
[32]
  Activity: 40.1%
[33]
  Activity: -5.5%
[44]
  IC50: 58.9 µM
[45]
  inhibition at 44 µg/mL: 88.8%
[46]
  IC50: 95.1 µM
[35]
  inhibition: Dose-dependent effect
[35]; ATCC 27853, 20 h
  IC50: 25.2 µg/mL (≈ 52.5 µM)
[36]
  inhibition: Dose-dependent effect
  IC50: 12.2 µg/mL (≈ 25.4 µM)
[37]
  Activity: 7.9%
[38]
  Activity: -5.4%
[39]
  Activity: 6%
[40]
  Activity: 10.6%
[41]
  Activity: -0.8%
[42]
  Activity: -15.8%
[43]
  Activity: -19.3%
